We go through 30 compounds from US9920035B2, “Heterocyclic compounds, medicaments containing said compounds, use thereof and processes for the preparation thereof” (Boehringer Ingelheim International GmbH, priority 2011, dated 2018).

The assay deals with T1, epithelial sodium channel (ENaC) (Mus musculus, UniProt Q61180+Q9WU38+Q9WU39).
T1 construct: Mouse kidney M-1 cells were cultivated in DMEM containing 5% FCS and 5 μM dexamethasone; endogenous in cells; host or cells: mouse kidney M-1 cells
T1 sequence (Q61180 1-699): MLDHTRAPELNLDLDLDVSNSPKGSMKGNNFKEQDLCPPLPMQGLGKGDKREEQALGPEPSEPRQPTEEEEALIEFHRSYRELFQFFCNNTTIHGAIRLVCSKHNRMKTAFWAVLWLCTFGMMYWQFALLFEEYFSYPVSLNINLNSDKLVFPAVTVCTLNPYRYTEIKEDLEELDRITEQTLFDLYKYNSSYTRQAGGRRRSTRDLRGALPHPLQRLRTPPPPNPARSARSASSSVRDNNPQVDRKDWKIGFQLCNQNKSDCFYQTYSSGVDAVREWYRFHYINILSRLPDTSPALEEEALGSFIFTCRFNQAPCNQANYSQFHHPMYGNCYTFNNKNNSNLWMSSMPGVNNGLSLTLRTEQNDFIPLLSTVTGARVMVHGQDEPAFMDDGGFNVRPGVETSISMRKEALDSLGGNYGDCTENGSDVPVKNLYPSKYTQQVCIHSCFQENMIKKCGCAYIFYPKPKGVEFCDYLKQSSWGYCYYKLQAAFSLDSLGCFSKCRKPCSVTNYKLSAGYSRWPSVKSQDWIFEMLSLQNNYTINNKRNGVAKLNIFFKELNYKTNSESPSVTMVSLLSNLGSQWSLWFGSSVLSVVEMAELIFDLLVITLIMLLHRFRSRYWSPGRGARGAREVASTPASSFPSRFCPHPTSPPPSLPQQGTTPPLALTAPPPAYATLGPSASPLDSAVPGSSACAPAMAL
T1 sequence (Q9WU38 1-638): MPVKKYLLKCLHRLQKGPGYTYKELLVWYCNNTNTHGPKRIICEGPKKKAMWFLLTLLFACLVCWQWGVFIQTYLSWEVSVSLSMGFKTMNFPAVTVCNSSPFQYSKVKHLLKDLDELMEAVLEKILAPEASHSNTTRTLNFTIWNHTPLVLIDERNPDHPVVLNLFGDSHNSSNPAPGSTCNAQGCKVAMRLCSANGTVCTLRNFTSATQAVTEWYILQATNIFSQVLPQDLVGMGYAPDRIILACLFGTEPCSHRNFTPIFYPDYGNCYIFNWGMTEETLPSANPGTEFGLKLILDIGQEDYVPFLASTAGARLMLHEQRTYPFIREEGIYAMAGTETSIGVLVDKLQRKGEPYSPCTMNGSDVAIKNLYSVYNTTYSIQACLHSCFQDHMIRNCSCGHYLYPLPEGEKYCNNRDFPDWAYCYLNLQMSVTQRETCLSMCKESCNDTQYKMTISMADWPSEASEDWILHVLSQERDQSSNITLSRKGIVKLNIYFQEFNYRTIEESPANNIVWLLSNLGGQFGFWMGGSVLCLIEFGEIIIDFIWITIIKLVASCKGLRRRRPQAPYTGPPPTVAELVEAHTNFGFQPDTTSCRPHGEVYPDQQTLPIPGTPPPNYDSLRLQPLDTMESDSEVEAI
T1 sequence (Q9WU39 1-655): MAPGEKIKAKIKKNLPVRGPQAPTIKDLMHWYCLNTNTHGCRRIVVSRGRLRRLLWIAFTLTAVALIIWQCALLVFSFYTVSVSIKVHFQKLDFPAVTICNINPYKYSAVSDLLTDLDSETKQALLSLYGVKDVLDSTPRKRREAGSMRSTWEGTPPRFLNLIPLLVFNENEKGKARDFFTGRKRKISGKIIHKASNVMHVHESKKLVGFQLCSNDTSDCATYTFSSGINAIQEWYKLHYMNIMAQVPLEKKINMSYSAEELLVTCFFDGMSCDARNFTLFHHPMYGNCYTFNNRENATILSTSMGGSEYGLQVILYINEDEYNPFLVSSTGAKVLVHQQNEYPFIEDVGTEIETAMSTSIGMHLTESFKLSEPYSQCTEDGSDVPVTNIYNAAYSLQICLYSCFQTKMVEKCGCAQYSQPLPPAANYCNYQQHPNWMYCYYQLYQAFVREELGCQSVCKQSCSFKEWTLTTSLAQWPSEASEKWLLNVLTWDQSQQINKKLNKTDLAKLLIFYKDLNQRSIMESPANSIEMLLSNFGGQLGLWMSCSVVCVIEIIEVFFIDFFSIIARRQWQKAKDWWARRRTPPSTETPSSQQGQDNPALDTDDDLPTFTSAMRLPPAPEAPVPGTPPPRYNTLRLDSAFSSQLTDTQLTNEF
Description: Ussing chamber: inhibition of amiloride sensitive short circuit current (I_sc) in M-1 cells. The following applies: Mouse kidney M-1 cells on transwell filters, Ussing chamber at 37° C., compound added to the apical solution. It is filed as cell-based. How it is done:
Mouse kidney M-1 cells were cultivated in DMEM containing 5% FCS and 5 μM dexamethasone for 10 to 12 days on polyester transwell filters. Filters were inserted into a teflon-coated well-plate which fit into the in-house ussing chamber system. Prior to measurement the medium of M-1 cells was replaced with Caco-2 transport buffer (Invitrogen, Germany). During measurements, the Ussing chamber temperature was kept at 37° C. Short circuit currents (I_sc) were measured in the voltage-clamp mode using an in-house built amplifier (Boehringer Ingelheim, Biberach) with the software package Lab View for data acquisition and analysis. The transepithelial electrical resistance (TEER) was determined by the application of voltage steps of ±5 mV every 5 sec. Compounds were administered at a final concentration of 3 μM or at increasing concentrations (1-3-10 μM) to the apical solution. At the end of each experiment the amiloride sensitive I_SC was measured by adding 3 μM amiloride to the apical compartment. Results are expressed as inhibition in percent of the amiloride effect or as IC50. Results are listed in tables 1 to 5 and further examples listed above.

For orientation: IC50 means the concentration that inhibits the measured activity by half. Low values mean greater potency in that assay, high ones weaker potency in that assay. As for `COC(=O)CCC(=O)N1CCC(CCc2ccccc2)(CN/C(N)=N/C(=O)c2nc(Br)c(N)nc2N)CC1` [Example 10, 4-{4-[N′-(3,5-Diamino-6-bromo-pyrazine-2-carbonyl)-guanidinomethyl]-4-phenethyl-piperidin-1-yl}-4-oxo-butyric acid methyl ester], 32 nM corresponded to half-maximal inhibition (IC50). This lies in the double-digit nanomolar range.

In the case of `CC(C)(C)OC(=O)NCC(=O)N1CCC(CNC(N)=NC(=O)c2nc(Cl)c(N)nc2N)(Cc2ccccc2)CC1` [Example 1.24], the IC50 was 27 nM. The IC50 values of the last two compounds are within 1.5-fold of each other. Regarding `CN(C)CCN1CCC(CNC(N)=NC(=O)c2nc(Cl)c(N)nc2N)(Cc2ccccc2)CC1` [Example 1.41], inhibition was half-maximal at 91 nM (IC50).

In the case of `CC(C)CC(=O)N1CCC(CCc2ccccc2)(CNC(N)=NC(=O)c2nc(Cl)c(N)nc2N)CC1` [Example 1.11], the IC50 turned out to be 17 nM. Compared with the last compound, the IC50 is about 5.4-fold lower. As to `CN(C)CCN1CCC(CCc2ccccc2)(CNC(N)=NC(=O)c2nc(Cl)c(N)nc2N)CC1` [Example 1.32], the IC50 came out at 46 nM. `NCCCN1CCC(CCc2ccccc2)(CNC(N)=NC(=O)c2nc(Cl)c(N)nc2N)CC1` [Example 2.5] had a half-inhibitory concentration (IC50) of 65 nM. The IC50 values of the last two compounds are within 1.5-fold of each other.

The compound `CN(C)CCNC(=O)N1CCC(CCc2ccccc2)(CNC(N)=NC(=O)c2nc(Cl)c(N)nc2N)CC1` [Example 1.10] came in with an IC50 of 36 nM.

In turn, `NCCCNC(=O)N1CCC(CCc2ccccc2)(CNC(N)=NC(=O)c2nc(Cl)c(N)nc2N)CC1` [Example 2.6] gave a concentration for half-maximal inhibition (IC50) of 28 nM. Compound `COC(=O)CN1CCC(CCc2ccccc2)(CNC(N)=NC(=O)c2nc(Cl)c(N)nc2N)CC1` [Example 1.16, {4-[N′-(3,5-diamino-6-chloro-pyrazine-2-carbonyl)guanidinomethyl]-4-phenethyl-piperidin-1-yl}-acetic acid methyl ester] displayed an IC50 of 2 nM. As for `CC(C)(C)OC(=O)NCC(=O)N1CCC(CCc2ccccc2)(CNC(N)=NC(=O)c2nc(Cl)c(N)nc2N)CC1` [Example 1.25], 18 nM corresponded to half-maximal inhibition (IC50). For `COC(=O)CCNC(=O)N1CCC(CCc2ccccc2)(CNC(N)=NC(=O)c2nc(Cl)c(N)nc2N)CC1` [Example 1.19] the value was 24 nM. `C[N+](C)(C)CCCNC(=O)N1CCC(CCc2ccccc2)(CNC(N)=NC(=O)c2nc(Cl)c(N)nc2N)CC1` [Example 5.1] gave an IC50 of 27 nM. On to `CC(C)NC(=O)N1CCC(CNC(N)=NC(=O)c2nc(Cl)c(N)nc2N)(c2ccccc2)CC1` [Example 1.43], for which 41 nM corresponded to half-maximal inhibition (IC50). `CS(=O)(=O)N1CCC(CCc2ccccc2)(CNC(N)=NC(=O)c2nc(Cl)c(N)nc2N)CC1` [Example 1.1] yielded an IC50 of 34 nM. Compound `COc1ccccc1C1(CNC(N)=NC(=O)c2nc(Cl)c(N)nc2N)CCNCC1` [Example 2.10] had an IC50 of 200 nM. For the compound `CC(C)(C)OC(=O)NCCCN1CCC(CCc2ccccc2)(CNC(N)=NC(=O)c2nc(Cl)c(N)nc2N)CC1` [Example 1.28], it took 36 nM to reach half-maximal inhibition (IC50).

`NC(=NC(=O)c1nc(Cl)c(N)nc1N)NCC1(Cc2ccccc2)CCNCC1` [Example 2.11] yielded an IC50 of 55 nM. In turn, `COC(=O)CN1CCC(CNC(N)=NC(=O)c2nc(Cl)c(N)nc2N)(Cc2ccccc2)CC1` [Example 1.30] returned an IC50 of 70 nM. Turning to `C[N+](C)(C)CCCC(=O)N1CCC(CCc2ccccc2)(CNC(N)=NC(=O)c2nc(Cl)c(N)nc2N)CC1` [Example 1.50], it took 15 nM to reach half-maximal inhibition (IC50). This IC50 is about 4.7-fold lower than that of the compound before. In turn, `CN1CCC(CCc2ccccc2)(CNC(N)=NC(=O)c2nc(Cl)c(N)nc2N)CC1` [Example 1.3] had an IC50 of 33 nM. As for `NCCC(=O)N1CCC(CNC(N)=NC(=O)c2nc(Cl)c(N)nc2N)(Cc2ccccc2)CC1` [Example 2.9], the IC50 was 93 nM.

As for `CN(C)CCCN1CCC(CNC(N)=NC(=O)c2nc(Cl)c(N)nc2N)(Cc2ccccc2)CC1` [Example 1.31], the IC50 came to 287 nM. This IC50 lies about 3.1-fold higher than the previous one.

As to `CC(C)NC(=O)N1CCC(CCc2ccccc2)(CNC(N)=NC(=O)c2nc(Cl)c(N)nc2N)CC1` [Example 1.2], the IC50 is 8 nM.

For the compound `N=C(N)NCCC(=O)N1CCC(CCc2ccccc2)(CNC(N)=NC(=O)c2nc(Cl)c(N)nc2N)CC1` [Example 4.1], the IC50 is 12 nM. Compound `C[N+]1(C)CCC(NC(=O)N2CCC(CCc3ccccc3)(CNC(N)=NC(=O)c3nc(Cl)c(N)nc3N)CC2)CC1` [Example 5.5] registered an IC50 of 52 nM. The compound `CC(C)(C)OC(=O)NCCCNC(=O)N1CCC(CNC(N)=NC(=O)c2nc(Cl)c(N)nc2N)(Cc2ccccc2)CC1` [Example 1.36] displayed an IC50 of 18 nM. `CN(C)CC(=O)N1CCC(CCc2ccccc2)(CNC(=N)NC(=O)c2nc(Cl)c(N)nc2N)CC1` [Example 1.48] had a concentration for half-maximal inhibition (IC50) of 130 nM.

On to `CN1CCN(C(=O)N2CCC(CCc3ccccc3)(CN/C(N)=N/C(=O)c3nc(Cl)c(N)nc3N)CC2)CC1` [Example 1.53], for which half-maximal inhibition (IC50) was put at 14 nM.

Turning to `NCCCCC(=O)N1CCC(CCc2ccccc2)(CNC(N)=NC(=O)c2nc(Cl)c(N)nc2N)CC1` [Example 2.3], the IC50 was 23 nM. Take `N=C(N)NCCCCC(=O)N1CCC(CCc2ccccc2)(CNC(N)=NC(=O)c2nc(Cl)c(N)nc2N)CC1` [Example 4.2]: 18 nM corresponded to half-maximal inhibition (IC50).
